Source: patent publication US11478426B2, “Abuse deterrent immediate release capsule dosage forms” (SpecGX LLC, priority 2018, dated 2022)

Tested on: Slug species
Experiment: Slug irritation test (mucus production as model of nasal irritation)
Type: in vivo
Details: 15 min exposure, mean ± SEM (n)
Procedure: The organic acid of the capsule contents was tested for potential nasal irritation using a slug irritation model.

Compound | Mucus Production (% of Body Weight) (dose 0.3 mg) | Mucus Production (% of Body Weight) (dose 1.0 mg) | Mucus Production (% of Body Weight) (dose 3.0 mg) | Mucus Production (% of Body Weight) (dose 5.0 mg) | Mucus Production (% of Body Weight) (dose 10 mg) | Mucus Production (% of Body Weight) (dose 15 mg) | Mucus Production (% of Body Weight) (dose 20 mg) | Mucus Production (% of Body Weight) (dose 1%)
CCCCCCCCCCCCOS(=O)(=O)[O-].[Na+] [Sodium Lauryl Sulfate] | 5.9 ± 2.0 (6) % of Body Weight | 9.5 ± 2.1 (9) % of Body Weight | 13.4 ± 2.6 (3) % of Body Weight | 9.8 ± 2.1 (6) % of Body Weight | 16.6 ± 0.9 (3) % of Body Weight | 22.7 ± 4.5 (3) % of Body Weight | 26.2 ± 3.8 (3) % of Body Weight | 
O=C(O)C(O)C(O)C(=O)O (stereo not shown) [Tartaric Acid] |  |  | 2.8 ± 2.4 (3) % of Body Weight | 7.2 ± 0.7 (6) % of Body Weight | 10.0 ± 1.3 (3) % of Body Weight | 33.6 ± 1.1 (6) % of Body Weight | 24.6 ± 2.8 (3) % of Body Weight | 
Benzalkonium Chloride [Benzalkonium Chloride (BAC)] |  |  |  |  |  |  |  | 24.7 ± 2.1 (3) % of Body Weight
